For test [1], the target named is BDNF/NT-3 growth factors receptor (Homo sapiens) (UniProt Q16620). Nature of the test: Selectivity interaction (Kinase panel (Z-LYTE Assay)) EUB0001632a NTRK2. The settings on record: at 10 µM.
Test [2] has as its target T1, Mitogen-activated protein kinase kinase kinase kinase 2 (Homo sapiens) (UniProt Q12851).
T1 sequence (whole entry): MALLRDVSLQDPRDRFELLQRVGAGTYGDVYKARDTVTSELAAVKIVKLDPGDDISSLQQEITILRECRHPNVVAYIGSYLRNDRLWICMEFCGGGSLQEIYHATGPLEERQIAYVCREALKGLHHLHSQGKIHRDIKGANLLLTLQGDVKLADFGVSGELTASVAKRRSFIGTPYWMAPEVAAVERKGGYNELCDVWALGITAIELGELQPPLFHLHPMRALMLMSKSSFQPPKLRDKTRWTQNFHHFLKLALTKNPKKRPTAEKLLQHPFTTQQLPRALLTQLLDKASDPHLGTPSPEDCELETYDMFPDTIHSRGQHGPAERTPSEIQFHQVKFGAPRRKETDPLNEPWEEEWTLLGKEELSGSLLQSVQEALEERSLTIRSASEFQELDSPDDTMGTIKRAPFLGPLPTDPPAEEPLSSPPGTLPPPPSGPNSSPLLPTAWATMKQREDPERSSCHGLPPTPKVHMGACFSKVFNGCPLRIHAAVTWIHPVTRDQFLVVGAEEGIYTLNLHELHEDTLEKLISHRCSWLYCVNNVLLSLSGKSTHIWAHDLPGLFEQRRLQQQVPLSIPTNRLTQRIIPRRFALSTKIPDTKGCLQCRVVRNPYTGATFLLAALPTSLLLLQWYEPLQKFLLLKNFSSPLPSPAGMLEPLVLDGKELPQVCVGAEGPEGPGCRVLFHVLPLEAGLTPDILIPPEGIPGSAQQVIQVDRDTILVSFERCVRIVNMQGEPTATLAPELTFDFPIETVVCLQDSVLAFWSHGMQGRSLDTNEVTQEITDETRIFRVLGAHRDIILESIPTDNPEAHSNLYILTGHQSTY
As to the kind of experiment: Selectivity interaction (Kinase panel (KiNativ target engagement assay in Jurkat cells)) EUB0001635a MAP4K2. The test is classed as cell-based. The following applies: Selectivity number of off-targets 0.0, Selectivity number of targets 233.0, Source Knowledge https://www.sciencedirect.com/science/article/pii/S2451945619300674?via%3Dihub, at 1 µM.

The target in test [3] is Interleukin-1 receptor-associated kinase 1 (Homo sapiens) (UniProt P51617). Nature of the test: Selectivity interaction (Kinase panel (KiNativ target engagement assay in Jurkat cells)) EUB0001635a IRAK1. The test is classed as cell-based. The settings on record: Selectivity number of off-targets 0.0, Selectivity number of targets 233.0, Source Knowledge https://www.sciencedirect.com/science/article/pii/S2451945619300674?via%3Dihub, at 1 µM.

In test [4] the target is Leucine-rich repeat serine/threonine-protein kinase 2 (Homo sapiens, UniProt Q5S007). Nature of the test: (§1) Selectivity interaction (KinomeScan (DiscoverX)) EUB0000666a LRRK2. The following applies: at 10 µM.
The test system of test [5] is Leucine-rich repeat serine/threonine-protein kinase 2 (Homo sapiens), Q5S007 [G2019S]. Described as §1. The following applies: at 10 µM.
Test [6] deals with Calcium/calmodulin-dependent protein kinase kinase 1 (Homo sapiens) (UniProt Q8N5S9). Nature of the test: Selectivity interaction (KinomeScan (DiscoverX)) EUB0001049a CAMKK1. The following applies: at 1 µM.
In test [7] the target is Bromodomain-containing protein 4 (Homo sapiens, UniProt O60885). As to the kind of experiment: Selectivity interaction (Bromodomain panel (DSF asssay)) EUB0000270b BRD4.
Test [8] has as its target T2, Serine/threonine-protein kinase RIO1 (Homo sapiens) (UniProt Q9BRS2).
T2 sequence (whole entry): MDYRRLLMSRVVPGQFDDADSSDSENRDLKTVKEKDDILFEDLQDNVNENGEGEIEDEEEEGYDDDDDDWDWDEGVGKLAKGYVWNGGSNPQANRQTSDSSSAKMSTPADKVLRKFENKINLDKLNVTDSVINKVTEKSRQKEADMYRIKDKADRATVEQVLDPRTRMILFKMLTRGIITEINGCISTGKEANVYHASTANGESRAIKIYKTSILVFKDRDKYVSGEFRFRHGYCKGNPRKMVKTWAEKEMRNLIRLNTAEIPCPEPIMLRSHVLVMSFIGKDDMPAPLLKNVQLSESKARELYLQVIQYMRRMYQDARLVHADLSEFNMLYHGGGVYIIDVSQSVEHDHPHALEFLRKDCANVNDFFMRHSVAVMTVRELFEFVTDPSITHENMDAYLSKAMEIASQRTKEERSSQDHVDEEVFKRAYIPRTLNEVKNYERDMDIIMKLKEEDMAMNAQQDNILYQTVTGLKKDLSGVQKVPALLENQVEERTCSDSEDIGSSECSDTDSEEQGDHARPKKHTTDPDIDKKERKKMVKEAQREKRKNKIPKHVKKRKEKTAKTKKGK
Nature of the test: Selectivity interaction (KINOMEscan (DiscoverX)) EUB0001868a RIOK1. The settings on record: at 1 µM.

Leucine-rich repeat serine/threonine-protein kinase 2 (Homo sapiens), Q5S007 [G2019S], sequence (Q5S007 whole entry G2019S): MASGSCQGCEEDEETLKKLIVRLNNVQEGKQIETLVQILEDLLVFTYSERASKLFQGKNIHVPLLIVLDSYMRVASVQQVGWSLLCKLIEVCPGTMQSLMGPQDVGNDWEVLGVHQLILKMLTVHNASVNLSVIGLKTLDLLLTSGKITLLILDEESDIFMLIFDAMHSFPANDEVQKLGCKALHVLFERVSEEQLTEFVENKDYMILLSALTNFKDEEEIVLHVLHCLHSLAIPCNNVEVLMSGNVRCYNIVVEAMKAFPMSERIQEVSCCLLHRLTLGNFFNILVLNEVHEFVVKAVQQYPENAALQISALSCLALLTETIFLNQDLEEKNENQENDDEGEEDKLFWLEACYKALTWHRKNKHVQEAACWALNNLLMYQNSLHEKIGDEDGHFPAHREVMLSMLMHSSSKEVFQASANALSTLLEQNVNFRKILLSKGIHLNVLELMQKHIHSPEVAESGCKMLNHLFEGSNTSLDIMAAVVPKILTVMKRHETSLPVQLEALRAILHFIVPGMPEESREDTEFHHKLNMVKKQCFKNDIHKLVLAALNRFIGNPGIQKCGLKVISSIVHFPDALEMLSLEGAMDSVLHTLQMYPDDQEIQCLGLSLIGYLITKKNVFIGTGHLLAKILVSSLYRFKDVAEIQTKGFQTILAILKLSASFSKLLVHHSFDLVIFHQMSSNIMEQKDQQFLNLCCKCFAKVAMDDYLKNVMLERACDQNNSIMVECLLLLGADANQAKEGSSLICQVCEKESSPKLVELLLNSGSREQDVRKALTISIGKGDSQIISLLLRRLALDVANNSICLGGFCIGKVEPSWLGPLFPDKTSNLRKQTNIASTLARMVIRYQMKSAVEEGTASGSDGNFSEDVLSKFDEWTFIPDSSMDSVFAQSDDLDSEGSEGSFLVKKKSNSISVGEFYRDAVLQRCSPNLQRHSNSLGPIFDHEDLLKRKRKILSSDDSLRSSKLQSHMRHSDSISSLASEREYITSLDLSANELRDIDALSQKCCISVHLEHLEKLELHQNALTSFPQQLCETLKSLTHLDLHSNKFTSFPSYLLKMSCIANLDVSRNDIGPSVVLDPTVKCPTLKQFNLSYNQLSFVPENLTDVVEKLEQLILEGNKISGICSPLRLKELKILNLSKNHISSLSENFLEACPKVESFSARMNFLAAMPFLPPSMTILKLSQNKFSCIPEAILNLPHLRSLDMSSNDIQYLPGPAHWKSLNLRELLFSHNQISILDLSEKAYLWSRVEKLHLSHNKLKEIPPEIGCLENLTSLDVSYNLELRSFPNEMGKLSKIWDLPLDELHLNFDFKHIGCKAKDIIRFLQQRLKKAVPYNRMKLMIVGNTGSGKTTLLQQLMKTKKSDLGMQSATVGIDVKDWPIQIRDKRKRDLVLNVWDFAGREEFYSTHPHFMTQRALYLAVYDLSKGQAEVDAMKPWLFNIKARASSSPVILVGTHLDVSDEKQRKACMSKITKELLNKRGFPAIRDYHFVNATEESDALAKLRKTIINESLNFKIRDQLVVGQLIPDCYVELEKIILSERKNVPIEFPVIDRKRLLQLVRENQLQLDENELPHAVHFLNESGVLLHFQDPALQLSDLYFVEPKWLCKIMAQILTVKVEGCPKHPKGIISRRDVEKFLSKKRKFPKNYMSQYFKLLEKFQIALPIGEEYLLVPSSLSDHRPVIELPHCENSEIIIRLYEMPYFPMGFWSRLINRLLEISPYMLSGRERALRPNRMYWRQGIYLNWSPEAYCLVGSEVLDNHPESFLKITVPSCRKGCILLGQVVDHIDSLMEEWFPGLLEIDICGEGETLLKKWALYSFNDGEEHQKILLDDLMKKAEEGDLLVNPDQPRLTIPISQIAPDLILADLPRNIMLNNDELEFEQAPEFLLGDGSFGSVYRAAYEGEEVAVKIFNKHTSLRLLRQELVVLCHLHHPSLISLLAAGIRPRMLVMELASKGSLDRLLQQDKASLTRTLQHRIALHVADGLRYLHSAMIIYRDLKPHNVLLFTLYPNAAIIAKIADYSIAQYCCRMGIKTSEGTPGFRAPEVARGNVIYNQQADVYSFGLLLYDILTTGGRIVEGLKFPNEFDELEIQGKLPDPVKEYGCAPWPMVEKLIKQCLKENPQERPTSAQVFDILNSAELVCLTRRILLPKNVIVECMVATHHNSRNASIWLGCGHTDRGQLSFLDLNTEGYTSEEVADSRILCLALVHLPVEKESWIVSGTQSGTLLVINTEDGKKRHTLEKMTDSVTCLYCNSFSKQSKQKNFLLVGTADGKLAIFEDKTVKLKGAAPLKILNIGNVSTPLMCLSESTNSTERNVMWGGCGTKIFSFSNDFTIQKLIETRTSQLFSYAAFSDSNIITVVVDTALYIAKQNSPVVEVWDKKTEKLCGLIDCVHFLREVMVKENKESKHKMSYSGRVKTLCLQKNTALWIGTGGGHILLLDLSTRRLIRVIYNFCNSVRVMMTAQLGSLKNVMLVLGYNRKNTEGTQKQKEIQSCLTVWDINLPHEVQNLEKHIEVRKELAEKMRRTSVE
Calcium/calmodulin-dependent protein kinase kinase 1 (Homo sapiens), sequence (Q8N5S9 whole entry, looked up): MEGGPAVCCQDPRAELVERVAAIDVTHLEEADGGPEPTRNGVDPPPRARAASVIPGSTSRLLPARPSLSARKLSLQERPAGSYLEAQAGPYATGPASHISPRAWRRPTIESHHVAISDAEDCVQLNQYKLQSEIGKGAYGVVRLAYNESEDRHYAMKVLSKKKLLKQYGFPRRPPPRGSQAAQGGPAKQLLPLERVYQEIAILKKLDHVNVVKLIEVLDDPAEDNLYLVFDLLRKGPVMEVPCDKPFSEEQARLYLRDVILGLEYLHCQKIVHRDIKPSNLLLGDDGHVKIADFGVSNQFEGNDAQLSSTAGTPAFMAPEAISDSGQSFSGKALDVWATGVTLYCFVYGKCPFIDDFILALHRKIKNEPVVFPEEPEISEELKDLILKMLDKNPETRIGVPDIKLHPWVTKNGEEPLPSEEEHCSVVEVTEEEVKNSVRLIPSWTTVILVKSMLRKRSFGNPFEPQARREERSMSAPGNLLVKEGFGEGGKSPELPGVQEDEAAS
BDNF/NT-3 growth factors receptor (Homo sapiens), sequence (Q16620 32-822 limits assumed): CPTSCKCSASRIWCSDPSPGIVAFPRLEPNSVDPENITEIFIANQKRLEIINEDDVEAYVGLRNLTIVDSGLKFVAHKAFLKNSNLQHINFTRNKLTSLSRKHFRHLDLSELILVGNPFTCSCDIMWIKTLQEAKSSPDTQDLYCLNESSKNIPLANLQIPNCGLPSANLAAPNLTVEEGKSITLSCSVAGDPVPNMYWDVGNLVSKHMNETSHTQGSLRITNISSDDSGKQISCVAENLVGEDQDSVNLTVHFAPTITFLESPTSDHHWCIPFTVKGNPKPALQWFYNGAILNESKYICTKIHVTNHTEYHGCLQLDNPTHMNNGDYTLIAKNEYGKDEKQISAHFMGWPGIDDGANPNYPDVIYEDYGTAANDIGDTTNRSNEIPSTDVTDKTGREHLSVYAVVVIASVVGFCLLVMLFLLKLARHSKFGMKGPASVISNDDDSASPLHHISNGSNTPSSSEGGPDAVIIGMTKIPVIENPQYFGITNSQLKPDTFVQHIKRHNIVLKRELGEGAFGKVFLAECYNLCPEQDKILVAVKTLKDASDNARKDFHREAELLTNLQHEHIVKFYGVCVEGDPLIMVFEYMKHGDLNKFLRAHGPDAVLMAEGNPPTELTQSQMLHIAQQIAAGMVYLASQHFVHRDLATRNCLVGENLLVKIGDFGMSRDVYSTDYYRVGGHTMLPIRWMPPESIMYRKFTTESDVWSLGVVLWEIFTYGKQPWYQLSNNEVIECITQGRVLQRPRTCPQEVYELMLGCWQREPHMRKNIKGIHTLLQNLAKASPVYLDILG
Leucine-rich repeat serine/threonine-protein kinase 2, sequence (Q5S007 whole entry): as the sequence (Q5S007 whole entry G2019S) above, with S2019G counted along it
Interleukin-1 receptor-associated kinase 1 (Homo sapiens), sequence (P51617 whole entry, looked up): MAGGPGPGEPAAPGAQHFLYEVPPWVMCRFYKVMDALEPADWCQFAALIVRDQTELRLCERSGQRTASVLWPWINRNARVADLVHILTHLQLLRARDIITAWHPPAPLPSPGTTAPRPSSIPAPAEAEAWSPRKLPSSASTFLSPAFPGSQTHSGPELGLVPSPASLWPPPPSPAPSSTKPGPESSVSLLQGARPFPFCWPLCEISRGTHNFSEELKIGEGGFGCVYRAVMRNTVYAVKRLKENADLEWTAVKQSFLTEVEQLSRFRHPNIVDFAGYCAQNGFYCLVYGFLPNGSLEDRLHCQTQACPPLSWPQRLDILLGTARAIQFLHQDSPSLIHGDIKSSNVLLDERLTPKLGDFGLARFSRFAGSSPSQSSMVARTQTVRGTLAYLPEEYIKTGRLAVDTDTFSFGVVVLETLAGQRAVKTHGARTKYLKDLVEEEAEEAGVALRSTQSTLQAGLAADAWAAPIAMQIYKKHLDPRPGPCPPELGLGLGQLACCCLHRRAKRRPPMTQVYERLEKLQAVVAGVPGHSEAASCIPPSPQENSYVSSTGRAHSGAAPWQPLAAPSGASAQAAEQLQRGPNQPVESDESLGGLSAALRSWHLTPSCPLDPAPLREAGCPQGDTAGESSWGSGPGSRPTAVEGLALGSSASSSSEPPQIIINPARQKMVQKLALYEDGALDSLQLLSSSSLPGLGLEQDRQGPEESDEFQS

In the case of `Cn1cc(-n2cnc3c(NCc4nc5cc(Cl)c(Cl)cc5[nH]4)nc(N4CCOCC4)nc32)cn1`, the % of control in test [1] amounted to 4.86%.

Consider `C=CC(=O)Nc1ccc(C(=O)Nc2[nH]nc3c2CN(C(=O)N[C@H](CN(C)C)c2ccccc2)C3(C)C)cc1`, for which the % of engagement in test [2] was -6.1%; in test [3], 1.3%.

For `O=C(NOC[C@H](O)CO)c1ccc(F)c(F)c1Nc1ccc(I)cc1F`, the figures for the % of control in test [4] and in test [5] were 86% and 100%, respectively.

Regarding `COc1cc(Nc2nc(C)cc(-c3cnn4nc(OC)ccc34)n2)cc(C(F)(F)F)c1`, the % of control in test [6] amounted to 95%.

For the compound `Cc1cc(CN)cc(C)c1-c1ncn(C)c1-c1cncn1C`, the dTM in test [7] is -0.92 K.

In test [8], `Cc1cc(-c2ccnc(Nc3cnn(C)c3)n2)ccc1CNC(=O)N1CC(OC(C)C)C1` came in with a % of control of 17%.

These data come from ChEMBL document CHEMBL5465560, “Selectivity Literature for EUbOPEN Chemogenomic Library” (2024).
